Test results from US20240226120A1 (priority 2020, published 2024).

Experiments:
[1] = system: interferon and interferon-induced antiviral effector gene expression in cells expressing ORF8; experiment: qPCR of interferons and effector gene expression, ORF8; format: cell-based, human
[2] = system: interferon and interferon-induced antiviral effector gene expression in cells expressing ORF10; experiment: qPCR of interferons and effector gene expression, ORF10; format: cell-based, human

C=C(C)[C@@H]1CCC(C)=C[C@H]1c1c(O)cc(CCCCC)cc1O [Cannabidiol, 2-[(1R,6R)-3-Methyl-6-(1-methylethenyl)-2-cyclohexen-1-yl]-5-pentyl-1,3-benzenediol]
Interferon Lambda 1 mRNA expression ([1]; ORF8, 1 μM CBD vs vehicle alone, 24 hours (FIG. 9A)): significantly increased | extent of OAS1 augmentation compared with cells transfected with control vector ([1]; ORF8, 1 μM CBD, 24 hours): significantly higher | INF-gamma expression ([1]; ORF8, 1 μM CBD, 24 hours, compared with effect in control cells (FIG. 9B)): greater effect | OAS1 gene expression ([1]; ORF8, 1 μM CBD, 24 hours, relative to all other groups and treatments (FIG. 10)): highly significant increase | induction of OAS1 ([2]; ORF10, 1 μM CBD relative to vehicle alone, 24 hours (FIG. 14)): significantly increased | OAS1 induction compared with CBD plus control plasmid ([2]; ORF10, 1 μM CBD, 24 hours): lower
